One data set relates to cGMP. The data set can be described thus: DNIC-induced cGMP formation in MSC (confocal immunofluorescence). The note with it: 100 μM DNIC–COOH or 2.5 μM DNIC–COOMe, 2 h. It is filed as cell-based, human. As to the method: The MSC cells were plated on a cover glass (18 mm in diameter) loaded into a 24-well plate at a density of 1.7 × 10^3 cells/well until the desired confluency was reached. After the culture media were removed, 100 μM of DNIC–COOH (or 2.5 μM of DNIC–COOMe) was added to the cell culture and incubated for 2 h. The culture media were removed before the MSC cells were washed three times with PBS, whereas the washed MSC cells were further fixed with 4% paraformaldehyde (PFA) solution for 15 min at room temperature. After the PFA solution was removed, the MSC cells were washed twice with PBS for 3 min and permeabilized using 0.1% Triton X-100 (in PBS) at room temperature for 4 min. Subsequently, the MSC cells were washed twice with PBS for 3 min and incubated with a blocking buffer (2.5% BSA in PBS) at room temperature for 30 min. Then, the MSC cells were incubated with primary antibody solution (1:1000 for rabbit anti-cGMP antibody, purchased from Biorbyt, Cambridge, U.K.) at room temperature for 1 h before the MSC cells were washed three times with PBS for 3 min. Cover glasses containing the fixed MSC cells were mounted onto a microscope slide loaded with Fluoroshield mounting medium with DAPI to stain the nuclei before the optical images were captured using a confocal imaging system (Leica TCS-SP-X AOBS).

Data set [1] relates to MSC. The experiment in a line: Cytoprotection of MSC against H2O2 oxidative stress (CCK-8, live/dead). It counts as cell-based, human. Conditions: MSC pretreated 8 h (100 μM DNIC–COOH or 2.5 μM DNIC–COOMe), then 250 μM H2O2 24 h. As to the method: (§1) Cell viability study of MSC, N2a, and HCEC cells with or without the treatment of DNIC–COOH was performed using a Cell Counting Kit-8 (IMT Formosa New Materials Co., Ltd., Taiwan) according to the manufacturer’s protocol. Briefly, cells were seeded into a 96-well plate at a density of 4 × 10^3 cells/well for MSC, 1 × 10^4 cells/well for N2a, and 8 × 10^3 cells/well for HCEC, respectively, and incubated overnight. On the next day, cells were treated with DNIC–COOH at different concentrations and incubated for 24 h. The culture medium was then removed before the cells were washed with DPBS. After addition of fresh medium containing CCK-8 solution to the cells and incubation for 1–3 h, the absorbance at 450 nm was then measured on a microplate reader (SpectraMax iD3, Molecular Devices, San Jose, CA) with a reference wavelength of 650 nm. […]
To investigate the capacity of DNIC preconditioning to protect the MSC cells against elevated oxidative stress, cells were pretreated with 2.5 μM of DNIC–COOMe or 100 μM of DNIC–COOH for 8 h before being incubated with 250 μM H2O2 for another 24 h. Cell viability was evaluated by live/dead staining or CCK-8 assay. In a similar manner, DNIC-induced cytoprotective effect in HCECs was evaluated through pretreatment of 1 μM of DNIC–COOMe or 75 μM of DNIC–COOH for 24 h.

For data set [2], the system named is MSC. The experiment in a line: Survival of MSC under oxygen–glucose-deprived (OGD) condition. Conditions: MSC pretreated with DNIC, glucose-free DMEM, 1% oxygen, 48 h. It counts as cell-based, human. How it is done:
as §1, with “nm. Three independent experiments were executed, and the results were represented as mean ± SEM% (n = 3) with the untreated cells (control) as 100% viability.” for “nm.”
To simulate the microenvironment of ischemic tissues, the MSC cells with or without DNIC priming were cultured using glucose-free DMEM in a humidified hypoxia incubator (1% oxygen; Heracell VIOS 160i, Thermo Fisher Scientific) for 48 h. Cell viability was assessed by live/dead staining or CCK-8 assay.

For a further data set, the system named is MSC/N2a/HCEC. The data set can be described thus: Cell viability (CCK-8) of MSC/N2a/HCEC treated with DNICs. The note with it: 24 h; for effect on cell viability: N2a/HCEC. It counts as cell-based. How it is done: Cell viability study of MSC, N2a, and HCEC cells with or without the treatment of DNIC–COOH was performed using a Cell Counting Kit-8 (IMT Formosa New Materials Co., Ltd., Taiwan) according to the manufacturer’s protocol. Briefly, cells were seeded into a 96-well plate at a density of 4 × 10^3 cells/well for MSC, 1 × 10^4 cells/well for N2a, and 8 × 10^3 cells/well for HCEC, respectively, and incubated overnight. On the next day, cells were treated with DNIC–COOH at different concentrations and incubated for 24 h. The culture medium was then removed before the cells were washed with DPBS. After addition of fresh medium containing CCK-8 solution to the cells and incubation for 1–3 h, the absorbance at 450 nm was then measured on a microplate reader (SpectraMax iD3, Molecular Devices, San Jose, CA) with a reference wavelength of 650 nm. Three independent experiments were executed, and the results were represented as mean ± SEM% (n = 3) with the untreated cells (control) as 100% viability. Cell viability studies of MSC/N2a/HCEC cells (1) with the treatment of DNIC–COOMe for 24 h, (2) with the treatment of NEM for 0.5 h, (3) with the treatment of chlorpromazine (CPZ; TCI) for 0.5 h, (4) with the treatment of methyl-β-cyclodextrin (MβCD; Thermo Fisher Scientific) for 0.5 h, (5) with the treatment of genistein (Alfa Chemistry) for 0.5 h, (6) with the sequential treatments of ODQ for 1 h and DNIC–COOH for 3 h (MSC)/10 h (N2a)/6 h (HCEC), and (7) with the cotreatment of PTIO and DNIC–COOH for 3 h (MSC)/10 h (N2a)/6 h (HCEC), respectively, were performed in a similar manner. In addition to CCK-8 assay, a live/dead staining was performed using a ViaQuant Viability/Cytotoxicity Kit (GeneCopoeia, Rockville, MD) according to the manufacturer’s instruction.

From PMC11040670, “Mechanistic and Kinetic Insights into Cellular Uptake of Biomimetic Dinitrosyl Iron Complexes and Intracellular Delivery of NO for Activation of Cytoprotective HO-1” (JACS Au, 2024) come the findings set out here.

For `O=[N][Fe]1([N]=O)[SH](CCC(=O)O)[Fe]([N]=O)([N]=O)[SH]1CCC(=O)O` (stereo not drawn) [DNIC–COOH, [(NO)2Fe(μ-SCH2CH2COOH)2Fe(NO)2]], the “formation of cGMP” value in the data set with cGMP is “elevated formation of cGMP”. Besides, the survival rate in the data set on MSC [1] is on record as 58.7%. Besides, the “cell viability under OGD condition” value with MSC [2] was “increase in the number of viable cells”. The “biocompatibility in comparison with DNIC–COOMe” value in the data set with MSC/N2a/HCEC (MSC/N2a/HCEC) is on record as “improved biocompatibility”. Further, in the data set on MSC/N2a/HCEC, the “effect on cell viability” value is “dose-dependent cell-proliferation effect”.

Consider `COC(=O)CC[SH]1[Fe]([N]=O)([N]=O)[SH](CCC(=O)OC)[Fe]1([N]=O)[N]=O` (stereo not drawn) [DNIC–COOMe, [(NO)2Fe(μ-SCH2CH2COOCH3)2Fe(NO)2]], for which, in the data set on cGMP, the “formation of cGMP” value is listed as “elevated formation of cGMP”. For the same compound, the survival rate in the data set with MSC [1] is on record as 35.8%. For the same compound, the “cell viability under OGD condition” value in the data set on MSC [2] was “comparable to that of OGD group”. Besides, the “effect on cell viability” value in the data set on MSC/N2a/HCEC was “dose-dependent cell-proliferation effect”.
